{"source": "patent US20220354852A1", "about": "“TARGETING WNT SIGNALING FOR IMPROVED GLIOMA IMMUNOTHERAPY” (CITY OF HOPE, priority 2021, published 2022)", "type_in_all_cases": "cell-based", "key": {"[1]": {"system": "Wnt target genes BIRC5/Survivin and EphB2", "experiment": "Quantitative RT-PCR of Wnt target genes in human glioma cell lines", "experimental": "FIG. 15. Expression of target genes post-ICG-001 treatment (0-10 μM) by RT-PCR using (A-C) mouse Survivin in GL261-IL13, GL261, and K-luc cells. (D) Survivin in PBT147 human glioma cells. (E, F) Luciferase reporter assay indicating downregulation of Survivin/BIRC5 in PBT017 and PBT030 cell lines.\nFIG. 16 is a table showing the expression of the target genes survivin/BIRC5 post-ICG-001 treatment ([…]) as detected by RT-PCR and Luciferase Reporter Assay.\nICG-001 differentially affects the expression of the Wnt target genes BIRC5/Survivin and EphB2 in vitro. […] The effects of ICG-001 on Wnt/CBP/β-catenin signaling were further confirmed using a Survivin-luciferase reporter assay (FIG. 15). ICG-001's selective effects on the expression of Survivin and EphB2 may serve as indicators of ICG-001 on target tissue activity in vivo (FIG. 16) and a readout for pharmacokinetics/pharmacodynamics (PK/PD) as used previously in clinical trials with the second-generation CBP/β-catenin specific antagonist PRI-724 (Anthony et al. 2013)."}, "[2]": {"system": "PBT147 and PBT030 metabolic pathways", "experiment": "NanoString nCounter human metabolic panel of PBT147 and PBT030 cells", "experimental": "FIG. 8. NanoString analysis of human metabolic pathways after treatment with ICG-001. The profiling panel consists of 770 genes targeting six fundamental themes: neurotransmission, neuron-glia interactions, neuroplasticity, cell structure integrity, neuroinflammation, and metabolism. Each assay also includes six positive and eight negative RNA assay controls, plus ten mRNA housekeeping controls. RNA was hybridized with the Codeset from the gene panel at 65° C. for 16 h. The post-hybridization probe-target mixture were quantified using the nCounter Digital Analyzer, and all data analysis was performed on nSolver (NanoString Technologies) metabolic panel. All raw data was normalized with internal positive and negative controls to eliminate variability unrelated to the samples, then normalized to the selected housekeeping genes using Geometric Means methods.\nFIG. 17. (A-F) NanoString analysis of human metabolic pathways after treatment with ICG-001. The profiling panel consisted of 770 genes targeting six fundamental themes: neurotransmission, neuron-glia interactions, neuroplasticity, cell structure integrity, neuroinflammation, and metabolism. Each assay also included six positive and eight negative RNA assay controls and ten mRNA housekeeping controls. RNA was hybridized with the Codeset from the gene panel at 65° C. for 16 h. The post-hybridization probe-target mixture was quantified using the nCounter Digital Analyzer and all data analysis was performed using the nSolver metabolic panel (NanoString Technologies). All raw data was normalized with internal positive and negative controls to eliminate variability unrelated to the samples and then normalized to the selected housekeeping genes using Geometric Means methods. PBT147 and PBT030 cells were treated with ICG-001 at […] for 24 h (data not shown) or 72 h. Total RNA was collected for NanoString analysis from triplicate samples.\nPBT147 and PBT030 PBT cells were treated with ICG-001 (0, 5, or 10 μM) for 24-72 h. RNA expression was then analyzed using the NanoString nCounter platform (NanoString Technologies) by digitally detecting and counting in a single reaction without amplification using the NanoString human metabolic panel (City of Hope Molecular Pathology Core) (Geiss, Bumgarner et al. 2008). The data indicates change in a several metabolic markers and antigen presentation increased by PBT cells lines after treatment with ICG-001 at both time points. […] An increased p53 pathway and mitochondrial respiration was also observed at both time points and both cell lines.\nICG-001 Affects PBT tumor metabolism. The N-termini of the Kat3 coactivators, i.e. CBP and p300, provide a highly evolutionarily conserved hub to integrate multiple signaling cascades to coordinate cellular metabolism with the regulation of cellular status and function and specifically that p300/β-Catenin mediated transcription is required to enhance mitochondrial OXPHOS during the initiation of cellular differentiation (Hu et al. 2021, Thomas & Kahn 2016). Therefore, patient-derived GBM cell lines PBT147 and PBT030 lines were treated with ICG-001 (0, 5, or 10 μM) for 24 h or 72 h (FIG. 17 shown differences in both cells lines at 72 h). RNA isolated from the treated PBT cells was analyzed using the NanoString nCounter metabolic panel (NanoString Technologies). This approach digitally detects and counts gene transcripts in a single reaction without amplification (analysis done by City of Hope Molecular Pathology Core) (Geiss et al. 2008)."}, "[3]": {"system": "CAR T cells (HER2 and mock)", "experiment": "Viability and cell count of CAR T / mock T cells treated with ICG-001", "conditions": "ICG001 0, 2.5, 5 uM for 24-72 h", "experimental": "FIG. 27. T cells treated with ICG001 2.5 and 5 μM for 24 or 72 h. (A) CAR Ts mock and HER2 from one donor and mock CARs derived from two additional donors were plated on 6-well format plates and treated with ICG001 at concentrations 0-5 μM for 24 or 72 h. Cells were collected from each well, counted, and viability was determined. (B, C) NanoString analysis of T cells treated with ICG-001 to determine concentration-dependent metabolic changes. […] (E) Correlation of differential gene expression in all T cell lines combined at concentration of 2.5 and 5 μM.\nFIG. 29 is a bar graph showing the results of studies where CAR T calls are treated with ICG001 for 24 hours according to some embodiments. To determine how treatment with ICG001 affects the T cells, the following method was employed. On day 1, CAR Ts HER 2 or Mock CARs derived from the same donor and additional 2 donor mock cells were plated on 6 well format plates and treated with ICG001 0 uM, 2.5 uM, 5 uM for 24-72 h. On day 5, cells were collected per well, counted, cell viability was determined [pellets were frozen]. […] Note: CAR T from 494 donor treated with ICG001 were used in cytotoxicity assay #19 in comparison with untreated 4949 CARs."}, "[4]": {"conditions": "ICG-001 0, 5, or 10 μM, 24 h or 72 h"}, "[5]": {"conditions": "ICG-001 0, 5, or 10 μM, both time points"}}, "note": "“Also recorded” adds a separate entry of the source."}
{"compound": "O=C1[C@H](Cc2ccc(O)cc2)N2C(=O)CCN(C(=O)NCc3ccccc3)[C@H]2CN1Cc1cccc2ccccc12", "note": "[ICG-001]", "values": [{"measurement": "expression of Wnt/p300/β-catenin target gene EphB2", "setting": "[1]", "value": "upregulating"}, {"measurement": "expression of Wnt/CBP/β-catenin target gene BIRC5/Survivin", "setting": "[1]; ICG-001 0-10 μM", "value": "selectively downregulated"}, {"measurement": "cell cycle-related genes", "setting": "[2]; [4]", "value": "Downregulation; also recorded: cell cycle decrease"}, {"measurement": "glutamine metabolism, ROS, mTOR, and p53 signaling", "setting": "[2]; [4]", "value": "Upregulation"}, {"measurement": "glycolysis", "setting": "[2]; [4]", "value": "decrease"}, {"measurement": "mitochondrial respiration", "setting": "[2]; [4]", "value": "increased"}, {"measurement": "antigen presentation", "setting": "[2]; [5]", "value": "increased"}, {"measurement": "immunosuppressive tryptophan/kynurenine metabolism", "setting": "[2]; [5]", "value": "concomitant decrease"}, {"measurement": "fatty acid oxidation", "setting": "[2]; all treated cell lines, all timepoints", "value": "decreased in all treated cell lines at all timepoints; also recorded: decreased in all treated cells and all timepoints"}, {"measurement": "CAR T cell viability and proliferation", "setting": "[3]", "value": "not toxic to T cells in vitro"}, {"measurement": "CAR T cell viability and proliferation", "setting": "[3]; listed as ICG001", "value": "not affecting Car T cell viability and proliferation"}]}
